Values quoted from earlier work, collected in patent publication US6458376B1, “Nonaqueous fluorinated drug delivery suspensions” (Allergan, Inc., priority 1990, dated 2002).

Key:
[1] = systemically administered
[2] = for Boiling point: ambient pressure

| SMILES | elimination half life [1] | elimination half-life (in words) [1] | Density @ 25° C. [2] [gms/mL] | Kin. viscosity @ 25° C. [2] [cst] | Specific heat @ 25° C. [2] [g-cal/gm] | Surface tension @ 25° C. [2] [dynes/cm] | Boiling point [2] [°C] |
| --- | --- | --- | --- | --- | --- | --- | --- |
| FC1(F)C(F)(F)C(F)(F)C2(F)C(F)(F)C(F)(F)C(F)(F)C(F)(F)C2(F)C1(F)F (centres unmarked) [PFD, Perfluoro(decahydronaphthalene)] | about 7 days | quite rapid | 1.929 | 2.9 | 0.22 | 19.3 | 142 |
| FC1(F)C(F)(F)C(F)(F)C2(F)C(F)(C1(F)F)C(F)(F)C(F)(F)C1(F)C(F)(F)C(F)(F)C(F)(F)C(F)(F)C12F (centres unmarked) [PPP, perfluoroperhydrophenanthrene] |  | quite rapid | 2.016 | 8.0 | 0.27 | 21.6 | 215 |
| O [Water, reference compound] |  |  | 1.000 | 1.00 | 1.00 | 72.0 |  |
